One data set has as its system serum interferon. Also on record: species or system mice. The conditions noted are these: mouse, in vivo.
Data set [1] concerns vaccinia virus (DIE strain). Format: in vivo, vaccinia virus (DIE strain) in ICR female mice. The settings on record: 50 mg/kg i.p. on the day just before inoculation; ICR female mice; lesions counted 8th day.
A short description of data set [2]: Toxicity (acute toxicity, 50% lethal dose). The conditions noted are these: mouse, in vivo, ddY male mice.
Setting [3] is: iv, read-out: 50% Lethal dose, intravenously administered.
[4] abbreviates: ip, read-out: 50% Lethal dose, intraperitoneally administered.

Structures can show the parent of a compound that is named as a salt. Where two headings read alike, the source gives them in different places.

With `CC(C)=CCCC(C)=CCCC(C)=CCCC(C)=CCCC(C)=CCCC(C)=CCCC(C)=CCCC(C)=CCCC(C)=CCNCc1ccccc1` [N-benzylsolanesylamine hydrochloride], the “Serum interferon (Plaque inhibition)” value with serum interferon came out at 31.5%. Also, in data set [1], the “Prevention from vaccinia infection (Inhibition of tail lesion)” value (“Prevention … (Inhibition of tail lesion)” below) amounted to 74.7%. Further, the LD50 in data set [2] (setting [3]) stood at 152 mg/kg.
On to `CC(C)=CCCC(C)=CCCC(C)=CCCC(C)=CCCC(C)=CCCC(C)=CCCC(C)=CCCC(C)=CCCC(C)=CCNCCc1ccccc1` [N-phenethylsolanesylamine hydrochloride], for which the “Serum interferon (Plaque inhibition)” value in the data set on serum interferon is 19.1%. Also, in data set [1], the “Prevention … (Inhibition of tail lesion)” value is 30.8%. In addition, the LD50 is above 500 mg/kg in data set [2] (setting [4]) and 250 mg/kg in data set [2] (setting [3]).
For the compound `CC(C)=CCCC(C)=CCCC(C)=CCCC(C)=CCCC(C)=CCCC(C)=CCCC(C)=CCCC(C)=CCCC(C)=CCN(C)c1ccccc1` [N-methyl-N-phenylsolanesylamine], the “Serum interferon (Plaque inhibition)” value in the data set with serum interferon was 24.1%. Moreover, the “Prevention … (Inhibition of tail lesion)” value in data set [1] stood at 26.8%. The LD50 in data set [2] (setting [4]) and in data set [2] (setting [3]) was above 500 mg/kg each time.
Turning to `CC(C)=CCCC(C)=CCCC(C)=CCCC(C)=CCCC(C)=CCCC(C)=CCCC(C)=CCCC(C)=CCCC(C)=CCN(C)Cc1ccccc1` [N-methyl-N-benzylsolanesylamine hydrochloride], the “Serum interferon (Plaque inhibition)” value in the data set on serum interferon is 44.5%. Moreover, the “Prevention … (Inhibition of tail lesion)” value in data set [1] was determined as 17.5%. In addition, the values for the LD50 in data set [2] (setting [4]) and in data set [2] (setting [3]) were above 500 mg/kg and 550 mg/kg, respectively.

The values are drawn from patent publication US4322555A, “Nonaprenylamine derivatives” (priority 1980, dated 1982).
